ChEMBL document CHEMBL3526017, “Predicting the drug interaction potential of AMG 853, a dual antagonist of the D-prostanoid and chemoattractant receptor-homologous molecule expressed on T helper 2 cells receptors” (Drug Metab Dispos, 2012)

Columns and labels:
Cytochrome P450 3A7 [1] = molecular target: T1, Cytochrome P450 3A7 (Homo sapiens, UniProt P24462); assay: Drug metabolism assessed as recombinant CYP3A7 (unknown origin)-mediated compound formation treated with AMG 853 at 10 uM after 30 mins by LC-MS/MS analysis; format: ADME; settings: recombinant enzyme, 0.5 h
T1 sequence (P24462 whole entry): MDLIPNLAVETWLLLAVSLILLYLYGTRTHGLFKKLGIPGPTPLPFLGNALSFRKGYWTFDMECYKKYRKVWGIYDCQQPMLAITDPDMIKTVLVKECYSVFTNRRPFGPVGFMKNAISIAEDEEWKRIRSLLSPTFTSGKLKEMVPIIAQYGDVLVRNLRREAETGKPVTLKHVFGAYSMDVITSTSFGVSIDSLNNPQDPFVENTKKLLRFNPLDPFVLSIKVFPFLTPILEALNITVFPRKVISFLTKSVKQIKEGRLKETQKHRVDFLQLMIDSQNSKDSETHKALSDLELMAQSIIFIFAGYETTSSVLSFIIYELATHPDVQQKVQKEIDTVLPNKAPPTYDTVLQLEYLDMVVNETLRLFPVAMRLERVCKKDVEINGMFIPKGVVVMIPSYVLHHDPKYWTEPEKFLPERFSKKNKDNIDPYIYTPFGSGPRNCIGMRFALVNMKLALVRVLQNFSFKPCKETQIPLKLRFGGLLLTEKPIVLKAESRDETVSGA

Cytochrome P450 3A7 [2] = molecular target: T1, Cytochrome P450 3A7; assay: Drug metabolism assessed as recombinant CYP3A7 (unknown origin)-mediated compound formation measured per nmol protein treated with AMG 853 after 15 mins by LC-MS/MS analysis; format: ADME; settings: recombinant enzyme, 0.25 h
Cytochrome P450 2J2 [3] = molecular target: T2, Cytochrome P450 2J2 (Homo sapiens, UniProt P51589); assay: Drug metabolism assessed as recombinant CYP2J2 (unknown origin)-mediated compound formation measured per nmol protein treated with AMG 853 after 15 mins by LC-MS/MS analysis; format: ADME; settings: recombinant enzyme, 0.25 h
T2 sequence (P51589 whole entry): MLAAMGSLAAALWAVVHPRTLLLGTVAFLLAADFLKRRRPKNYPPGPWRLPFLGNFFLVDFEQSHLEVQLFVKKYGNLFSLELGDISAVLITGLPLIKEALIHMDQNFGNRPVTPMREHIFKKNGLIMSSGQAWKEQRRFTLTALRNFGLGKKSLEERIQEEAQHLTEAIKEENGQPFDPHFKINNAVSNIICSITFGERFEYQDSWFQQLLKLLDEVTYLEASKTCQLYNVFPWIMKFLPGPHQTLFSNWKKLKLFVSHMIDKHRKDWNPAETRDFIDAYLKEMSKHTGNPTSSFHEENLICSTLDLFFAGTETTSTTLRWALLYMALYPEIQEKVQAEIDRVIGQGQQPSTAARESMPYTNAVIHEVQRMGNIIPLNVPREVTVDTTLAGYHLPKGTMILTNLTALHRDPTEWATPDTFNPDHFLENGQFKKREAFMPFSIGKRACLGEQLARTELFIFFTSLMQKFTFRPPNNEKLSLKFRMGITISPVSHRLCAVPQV

Cytochrome P450 3A4 [4] = molecular target: T3, Cytochrome P450 3A4 (Homo sapiens, UniProt P08684); assay: Drug metabolism assessed as recombinant CYP3A4 (unknown origin)-mediated compound formation measured per nmol protein treated with AMG 853 after 15 mins by LC-MS/MS analysis; format: ADME; settings: recombinant enzyme, 0.25 h
T3 sequence (P08684 whole entry): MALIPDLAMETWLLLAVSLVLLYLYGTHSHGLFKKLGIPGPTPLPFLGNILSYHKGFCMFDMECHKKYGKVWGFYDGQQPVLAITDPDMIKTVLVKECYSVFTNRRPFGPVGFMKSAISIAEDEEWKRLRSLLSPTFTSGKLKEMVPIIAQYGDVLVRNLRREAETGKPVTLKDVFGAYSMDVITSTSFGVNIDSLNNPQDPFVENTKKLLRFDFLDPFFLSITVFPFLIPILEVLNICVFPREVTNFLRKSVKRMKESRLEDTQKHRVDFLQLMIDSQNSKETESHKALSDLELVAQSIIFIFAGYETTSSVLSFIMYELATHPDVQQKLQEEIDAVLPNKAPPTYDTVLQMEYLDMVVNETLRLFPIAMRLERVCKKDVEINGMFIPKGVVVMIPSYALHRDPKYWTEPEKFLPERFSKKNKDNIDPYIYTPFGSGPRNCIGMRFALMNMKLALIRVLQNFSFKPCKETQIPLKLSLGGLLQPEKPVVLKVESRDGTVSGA

Cytochrome P450 3A4 [5] = molecular target: T3, Cytochrome P450 3A4; assay: Drug metabolism assessed as recombinant CYP3A4 (unknown origin)-mediated compound formation treated with AMG 853 at 10 uM after 30 mins by LC-MS/MS analysis; format: ADME; settings: recombinant enzyme, 0.5 h
Cytochrome P450 2C8 [6] = molecular target: T4, Cytochrome P450 2C8 (Homo sapiens, UniProt P10632); assay: Inhibition of recombinant CYP2C8 (unknown origin) treated with AMG 853; format: ADME
T4 sequence (P10632 whole entry): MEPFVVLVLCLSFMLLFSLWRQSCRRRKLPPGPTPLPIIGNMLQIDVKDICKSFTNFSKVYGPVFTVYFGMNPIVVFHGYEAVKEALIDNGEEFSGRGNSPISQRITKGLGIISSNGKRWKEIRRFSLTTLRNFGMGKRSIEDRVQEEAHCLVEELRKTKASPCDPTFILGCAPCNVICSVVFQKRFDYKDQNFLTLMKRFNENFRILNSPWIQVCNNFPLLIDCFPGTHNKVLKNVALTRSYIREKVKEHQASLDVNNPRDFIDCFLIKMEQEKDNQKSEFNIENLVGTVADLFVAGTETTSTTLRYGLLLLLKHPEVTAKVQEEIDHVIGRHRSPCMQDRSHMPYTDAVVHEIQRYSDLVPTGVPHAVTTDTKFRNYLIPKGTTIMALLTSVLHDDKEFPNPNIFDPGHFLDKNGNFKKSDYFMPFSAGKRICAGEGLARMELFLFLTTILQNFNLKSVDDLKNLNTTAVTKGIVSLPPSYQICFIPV

Cytochrome P450 3A5 [7] = molecular target: T5, Cytochrome P450 3A5 (Homo sapiens, UniProt P20815); assay: Drug metabolism assessed as recombinant CYP3A5 (unknown origin)-mediated compound formation treated with AMG 853 at 10 uM after 30 mins by LC-MS/MS analysis; format: ADME; settings: recombinant enzyme, 0.5 h
T5 sequence (P20815 whole entry): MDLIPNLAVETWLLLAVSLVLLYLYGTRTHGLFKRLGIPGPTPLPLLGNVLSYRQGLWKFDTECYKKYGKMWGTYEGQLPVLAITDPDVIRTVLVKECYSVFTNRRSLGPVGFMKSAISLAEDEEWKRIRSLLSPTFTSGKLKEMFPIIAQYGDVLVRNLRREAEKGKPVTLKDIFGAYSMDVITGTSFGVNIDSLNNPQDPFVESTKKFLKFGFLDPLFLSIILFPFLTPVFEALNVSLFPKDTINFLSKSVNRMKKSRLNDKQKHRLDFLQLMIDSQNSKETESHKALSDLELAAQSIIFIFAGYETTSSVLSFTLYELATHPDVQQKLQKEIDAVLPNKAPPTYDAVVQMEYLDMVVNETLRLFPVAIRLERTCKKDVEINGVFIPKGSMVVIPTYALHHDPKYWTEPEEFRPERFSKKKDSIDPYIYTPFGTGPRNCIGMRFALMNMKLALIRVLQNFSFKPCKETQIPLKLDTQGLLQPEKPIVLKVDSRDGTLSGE

[8] = Drug metabolism in human liver microsomes assessed as […]-mediated compound formation treated with AMG 853 after 15 mins by LC-MS/MS analysis; format: ADME; settings: 0.25 h
Cytochrome P450 2J2 [9] = molecular target: T2, Cytochrome P450 2J2; assay: Drug metabolism assessed as recombinant CYP2J2 (unknown origin)-mediated compound formation treated with AMG 853 at 10 uM after 30 mins by LC-MS/MS analysis; format: ADME; settings: recombinant enzyme, 0.5 h
Cytochrome P450 2C8 [10] = molecular target: T4, Cytochrome P450 2C8; assay: Drug metabolism assessed as recombinant CYP2C8 (unknown origin)-mediated compound formation treated with AMG 853 at 10 uM after 30 mins by LC-MS/MS analysis; format: ADME; settings: recombinant enzyme, 0.5 h
Cytochrome P450 2J2 [11] = molecular target: T2, Cytochrome P450 2J2; assay: Inhibition of recombinant CYP2J2 (unknown origin) treated with AMG 853; format: ADME
[12] = Drug metabolism in human liver microsomes assessed as CYP3A5*1/*1-mediated compound formation treated with AMG 853 after 15 mins by LC-MS/MS analysis; format: ADME; settings: 0.25 h
Cytochrome P450 2C8 [13] = molecular target: T4, Cytochrome P450 2C8; assay: Drug metabolism assessed as recombinant CYP2C8 (unknown origin)-mediated compound formation measured per nmol protein treated with AMG 853 after 15 mins by LC-MS/MS analysis; format: ADME; settings: recombinant enzyme, 0.25 h
Cytochrome P450 3A5 [14] = molecular target: T5, Cytochrome P450 3A5; assay: Drug metabolism assessed as recombinant CYP3A5 (unknown origin)-mediated compound formation measured per nmol protein treated with AMG 853 after 15 mins by LC-MS/MS analysis; format: ADME; settings: recombinant enzyme, 0.25 h
Cytochrome P450 2C19 = Cytochrome P450 2C19 (Homo sapiens, UniProt P33261); assay: Drug metabolism assessed as recombinant CYP2C19 (unknown origin)-mediated compound formation treated with AMG 853 at 10 uM after 30 mins by LC-MS/MS analysis; format: ADME; settings: recombinant enzyme, 0.5 h
Sequence of Cytochrome P450 2C19 (P33261 whole entry): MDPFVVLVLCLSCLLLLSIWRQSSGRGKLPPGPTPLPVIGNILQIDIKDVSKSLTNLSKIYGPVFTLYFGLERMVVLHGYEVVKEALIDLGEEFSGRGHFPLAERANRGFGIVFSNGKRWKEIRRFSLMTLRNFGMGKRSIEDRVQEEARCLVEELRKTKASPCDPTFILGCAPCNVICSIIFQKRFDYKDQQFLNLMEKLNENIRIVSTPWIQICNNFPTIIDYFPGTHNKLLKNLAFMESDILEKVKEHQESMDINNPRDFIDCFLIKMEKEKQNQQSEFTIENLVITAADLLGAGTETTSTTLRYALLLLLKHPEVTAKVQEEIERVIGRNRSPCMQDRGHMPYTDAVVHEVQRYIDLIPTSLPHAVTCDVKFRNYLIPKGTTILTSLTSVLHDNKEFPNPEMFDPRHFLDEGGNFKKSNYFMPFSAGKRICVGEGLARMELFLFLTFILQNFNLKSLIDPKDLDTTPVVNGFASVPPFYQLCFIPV

CYP1A2 = CYP1A2 (Homo sapiens, UniProt P05177); assay: Induction of CYP1A2 in human hepatocytes using phenacetin as substrate at 0.3 to 30 uM treated every 24 hrs for 2 days measured on day 5 by LC-MS/MS analysis relative to control; format: ADME, cell-based, Hepatocyte; settings: probe phenacetin, read-out: FC
Sequence of CYP1A2 (P05177 whole entry): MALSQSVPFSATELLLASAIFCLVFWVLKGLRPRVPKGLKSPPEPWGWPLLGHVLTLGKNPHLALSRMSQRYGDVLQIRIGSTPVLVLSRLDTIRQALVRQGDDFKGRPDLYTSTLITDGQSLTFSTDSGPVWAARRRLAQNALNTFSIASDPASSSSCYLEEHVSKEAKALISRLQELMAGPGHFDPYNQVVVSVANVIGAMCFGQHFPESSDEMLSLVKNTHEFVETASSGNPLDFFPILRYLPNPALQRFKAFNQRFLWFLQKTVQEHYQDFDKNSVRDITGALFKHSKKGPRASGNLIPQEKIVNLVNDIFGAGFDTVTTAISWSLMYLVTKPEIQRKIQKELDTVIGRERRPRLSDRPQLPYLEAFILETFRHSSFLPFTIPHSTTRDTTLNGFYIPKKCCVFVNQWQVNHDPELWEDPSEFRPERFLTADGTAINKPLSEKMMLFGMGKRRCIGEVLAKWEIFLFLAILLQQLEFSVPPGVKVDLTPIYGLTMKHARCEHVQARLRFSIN

CYP2B6 = CYP2B6 (Homo sapiens, UniProt P20813); assay: Induction of CYP2B6 in human hepatocytes using bupropion as substrate at 0.3 to 30 uM treated every 24 hrs for 2 days measured on day 5 by LC-MS/MS analysis relative to control; format: ADME, cell-based, Hepatocyte; settings: probe bupropion, read-out: FC
Sequence of CYP2B6 (P20813 whole entry): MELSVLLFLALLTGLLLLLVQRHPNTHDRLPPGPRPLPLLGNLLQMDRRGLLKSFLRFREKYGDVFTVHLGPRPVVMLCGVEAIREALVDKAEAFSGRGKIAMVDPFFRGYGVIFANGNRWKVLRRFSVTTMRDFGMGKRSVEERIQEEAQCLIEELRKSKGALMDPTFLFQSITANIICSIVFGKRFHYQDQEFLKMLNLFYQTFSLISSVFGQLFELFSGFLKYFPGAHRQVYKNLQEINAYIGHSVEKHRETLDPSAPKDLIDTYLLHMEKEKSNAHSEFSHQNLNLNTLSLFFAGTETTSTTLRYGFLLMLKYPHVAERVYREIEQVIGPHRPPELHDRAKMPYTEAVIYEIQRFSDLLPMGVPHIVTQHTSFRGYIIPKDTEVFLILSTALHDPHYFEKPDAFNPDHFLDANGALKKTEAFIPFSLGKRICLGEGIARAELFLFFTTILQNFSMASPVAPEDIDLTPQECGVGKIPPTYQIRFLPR

Compound | Drug metabolism (Cytochrome P450 3A7 [1]) | Vmax (Cytochrome P450 3A7 [2]) | Vmax (Cytochrome P450 2J2 [3]) | Vmax (Cytochrome P450 3A4 [4]) | Drug metabolism (Cytochrome P450 3A4 [5]) | Ki (Cytochrome P450 2C8 [6]) | Drug metabolism (Cytochrome P450 3A5 [7]) | Km [8] | Vmax [8] | Drug metabolism (Cytochrome P450 2J2 [9]) | Drug metabolism (Cytochrome P450 2C8 [10]) | Ki (Cytochrome P450 2J2 [11]) | Km [12] | Vmax [12] | Vmax (Cytochrome P450 2C8 [13]) | Vmax (Cytochrome P450 3A5 [14]) | Drug metabolism (Cytochrome P450 2C19) | fold induction at 48 h, up to 30 µM (CYP1A2) | fold induction at 48 h, up to 30 µM (CYP2B6)
CC(C)(CO)NC(=O)c1ccc(Oc2cc(F)c(CC(=O)O)cc2Cl)c(NS(=O)(=O)c2ccc(C3CC3)cc2Cl)c1 | metabolite_detected | 0.26 nmol/min | 0.584 nmol/min | 0.96 nmol/min | metabolite_detected | 31.7 µM | metabolite_detected | 4.11 µM | 0.023 nmol/min/mg | metabolite_detected | metabolite_detected | 240 µM | 2.75 µM | 0.044 nmol/min/mg | 0.031 nmol/min | 0.221 nmol/min | – | – | –
CC(C)(C)NC(=O)c1ccc(Oc2cc(F)c(CC(=O)O)cc2Cl)c(NS(=O)(=O)c2ccc(C3(O)CC3)cc2Cl)c1 | metabolite_detected | 0.286 nmol/min | 0.299 nmol/min | 1.41 nmol/min | metabolite_detected | – | metabolite_detected | 35.2 µM | 0.296 nmol/min/mg | metabolite_detected | metabolite_detected | – | 38.5 µM | 0.317 nmol/min/mg | 0.25 nmol/min | 1.13 nmol/min | metabolite_detected | – | –
COc1ccc2[nH]c([S+]([O-])Cc3ncc(C)c(OC)c3C)nc2c1 (stereo not drawn) [OMEPRAZOLE] | – | – | – | – | – | – | – | – | – | – | – | – | – | – | – | – | – | 47.4 | –
CCC1(c2ccccc2)C(=O)NC(=O)NC1=O [PHENOBARBITAL] | – | – | – | – | – | – | – | – | – | – | – | – | – | – | – | – | – | – | 22.1
